Values joined by “and” are separate entries in the source; they are usually repeats but may differ in a detail not shown here. Identical values can stand only once. Inconclusive results and toxic doses are left out.
Tested on: CD2F1 mice, L1210 leukemia ip, survival T/C
Test: NCI In Vivo Anticancer Drug Screen. Data for tumor model L1210 Leukemia (intraperitoneal) in CD2F1 (CDF1) mice
Conditions: endpoint: mean survival time, higher = longer survival
In short: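 Antitumor effect is scored in animals hosting a serially transplanted tumor. Values compare compound-dosed animals against vehicle-only controls as a simple quotient.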

[1] = dose: 100.0 mg/kg/injection, schedule: Q01DX009 (ip), vehicle: saline with Tween-80
[2] = dose: 200.0 mg/kg/injection, schedule: Q01DX009 (ip), vehicle: saline with Tween-80
[3] = dose: 400.0 mg/kg/injection, schedule: Q01DX009 (ip), vehicle: saline with Tween-80

## CC(=O)CS(=O)(=O)CC(N)=O
dose: 100.0 mg/kg/injection, schedule: Q01DX001 (ip), vehicle: saline sonified
  T/C: 96 % of control
dose: 200.0 mg/kg/injection, schedule: Q01DX001 (ip), vehicle: saline sonified
  T/C: 96 % of control
dose: 400.0 mg/kg/injection, schedule: Q01DX001 (ip), vehicle: saline sonified
  T/C: 97 % of control

## CC1=CCC(C(C)(C)c2ccc(O)cc2)CC1 (stereo unspecified)
dose: 25.0 mg/kg/injection, schedule: Q01DX009 (ip), vehicle: saline with Tween-80
  T/C: 94 % of control
dose: 50.0 mg/kg/injection, schedule: Q01DX009 (ip), vehicle: saline with Tween-80
  T/C: 110 % of control
[1]
  T/C: 98 % of control
dose: 100.0 mg/kg/injection, schedule: Q04DX003 (ip), vehicle: saline with Tween-80
  T/C: 90 % of control
[2]
  T/C: 96 % of control
dose: 200.0 mg/kg/injection, schedule: Q04DX003 (ip), vehicle: saline with Tween-80
  T/C: 104 % of control
dose: 400.0 mg/kg/injection, schedule: Q04DX003 (ip), vehicle: saline with Tween-80
  T/C: 90 % of control

## CCCCOS(=O)OCCCC
dose: 100.0 mg/kg/injection, schedule: Q01DX001 (ip), vehicle: saline with Tween-80
  T/C: 106 % of control
dose: 200.0 mg/kg/injection, schedule: Q01DX001 (ip), vehicle: saline with Tween-80
  T/C: 102 % of control
dose: 400.0 mg/kg/injection, schedule: Q01DX001 (ip), vehicle: saline with Tween-80
  T/C: 97 % of control

## C(=Nc1cccc2ccccc12)c1ccc2c(c1)OCO2
dose: 100.0 mg/kg/injection, schedule: Q01DX001 (ip), vehicle: Klucel (hydroxypropylcellulose) (HPC)
  T/C: 98 % of control
dose: 100.0 mg/kg/injection, schedule: Q01DX009 (ip), vehicle: Klucel (hydroxypropylcellulose) (HPC)
  T/C: 91 % of control
dose: 200.0 mg/kg/injection, schedule: Q01DX001 (ip), vehicle: Klucel (hydroxypropylcellulose) (HPC)
  T/C: 93 % of control
dose: 200.0 mg/kg/injection, schedule: Q01DX009 (ip), vehicle: Klucel (hydroxypropylcellulose) (HPC)
  T/C: 96 % of control
dose: 400.0 mg/kg/injection, schedule: Q01DX001 (ip), vehicle: Klucel (hydroxypropylcellulose) (HPC)
  T/C: 96 % of control
dose: 400.0 mg/kg/injection, schedule: Q01DX009 (ip), vehicle: Klucel (hydroxypropylcellulose) (HPC)
  T/C: 96 % of control

## CC(=O)NC(CCC(=O)C=[N+]=N)C(=O)O (stereo unspecified)
dose: 0.01 mg/kg/injection, schedule: Q03HX016 (ip), vehicle: saline
  T/C: 97 % of control
dose: 0.03 mg/kg/injection, schedule: Q03HX008 (ip), vehicle: saline
  T/C: 95 % of control
dose: 0.04 mg/kg/injection, schedule: Q03HX016 (ip), vehicle: saline
  T/C: 97 % of control
dose: 0.06 mg/kg/injection, schedule: Q03HX008 (ip), vehicle: saline
  T/C: 97 % of control
dose: 0.06 mg/kg/injection, schedule: Q03HX016 (ip), vehicle: saline
  T/C: 94 % of control
dose: 0.13 mg/kg/injection, schedule: Q01DX005 (iv), vehicle: saline
  T/C: 98 % of control
dose: 0.13 mg/kg/injection, schedule: Q01DX009 (ip), vehicle: saline
  T/C: 103 % of control
dose: 0.13 mg/kg/injection, schedule: Q01DX009 (oral), vehicle: saline
  T/C: 102 % of control
dose: 0.13 mg/kg/injection, schedule: Q03HX008 (ip), vehicle: saline
  T/C: 104 % of control
dose: 0.13 mg/kg/injection, schedule: Q03HX016 (ip), vehicle: saline
  T/C: 106 % of control
dose: 0.13 mg/kg/injection, schedule: Q03HX024 (ip), vehicle: saline
  T/C: 90 % of control
dose: 0.13 mg/kg/injection, schedule: Q04DX003 (ip), vehicle: saline
  T/C: 101 % of control
dose: 0.13 mg/kg/injection, schedule: Q08DX002 (ip), vehicle: saline
  T/C: 94 % of control
dose: 0.25 mg/kg/injection, schedule: Q01DX001 (ip), vehicle: saline
  T/C: 92 % of control
dose: 0.25 mg/kg/injection, schedule: Q01DX001 (iv), vehicle: saline
  T/C: 103 % of control
dose: 0.25 mg/kg/injection, schedule: Q01DX005 (iv), vehicle: saline
  T/C: 106 % of control
dose: 0.25 mg/kg/injection, schedule: Q01DX009 (ip), vehicle: saline
  T/C: 112 % of control
dose: 0.25 mg/kg/injection, schedule: Q01DX009 (oral), vehicle: saline
  T/C: 113 % of control
dose: 0.25 mg/kg/injection, schedule: Q03HX008 (ip), vehicle: saline
  T/C: 115 % of control and 122 % of control
dose: 0.25 mg/kg/injection, schedule: Q03HX024 (ip), vehicle: saline
  T/C: 100 % of control
dose: 0.25 mg/kg/injection, schedule: Q04DX003 (ip), vehicle: saline
  T/C: 101 % of control
dose: 0.25 mg/kg/injection, schedule: Q08DX002 (ip), vehicle: saline
  T/C: 97 % of control
dose: 0.4 mg/kg/injection, schedule: Q01DX009 (ip), vehicle: water
  T/C: 166 % of control
dose: 0.5 mg/kg/injection, schedule: Q01DX001 (ip), vehicle: saline
  T/C: 97 % of control
dose: 0.5 mg/kg/injection, schedule: Q01DX001 (iv), vehicle: saline
  T/C: 103 % of control
dose: 0.5 mg/kg/injection, schedule: Q01DX005 (iv), vehicle: saline
  T/C: 118 % of control
dose: 0.5 mg/kg/injection, schedule: Q04DX003 (ip), vehicle: saline
  T/C: 106 % of control
dose: 0.5 mg/kg/injection, schedule: Q08DX002 (ip), vehicle: saline
  T/C: 104 % of control
dose: 0.8 mg/kg/injection, schedule: Q01DX009 (ip), vehicle: water
  T/C: 115 % of control
dose: 1.0 mg/kg/injection, schedule: Q01DX001 (ip), vehicle: saline
  T/C: 106 % of control
dose: 1.0 mg/kg/injection, schedule: Q01DX001 (iv), vehicle: saline
  T/C: 107 % of control
dose: 1.0 mg/kg/injection, schedule: Q01DX001 (oral), vehicle: saline
  T/C: 110 % of control
dose: 1.0 mg/kg/injection, schedule: Q01DX009 (ip), vehicle: saline
  T/C: 119 % of control
dose: 1.0 mg/kg/injection, schedule: Q01DX009 (oral), vehicle: saline
  T/C: 115 % of control
dose: 1.0 mg/kg/injection, schedule: Q03HX016 (ip), vehicle: saline
  T/C: 151 % of control
dose: 1.0 mg/kg/injection, schedule: Q03HX024 (ip), vehicle: saline
  T/C: 181 % of control
dose: 1.0 mg/kg/injection, schedule: Q04DX003 (ip), vehicle: saline
  T/C: 117 % of control
dose: 1.0 mg/kg/injection, schedule: Q06HX012 (ip), vehicle: saline
  T/C: 158 % of control
dose: 1.0 mg/kg/injection, schedule: Q08DX002 (ip), vehicle: saline
  T/C: 111 % of control
dose: 2.0 mg/kg/injection, schedule: Q01DX001 (ip), vehicle: saline
  T/C: 104 % of control and 109 % of control
dose: 2.0 mg/kg/injection, schedule: Q01DX001 (iv), vehicle: saline
  T/C: 107 % of control
dose: 2.0 mg/kg/injection, schedule: Q01DX001 (oral), vehicle: saline
  T/C: 120 % of control
dose: 2.0 mg/kg/injection, schedule: Q01DX005 (ip), vehicle: saline
  T/C: 109 % of control
dose: 2.0 mg/kg/injection, schedule: Q01DX005 (iv), vehicle: saline
  T/C: 120 % of control
dose: 2.0 mg/kg/injection, schedule: Q03HX016 (ip), vehicle: saline
  T/C: 152 % of control
dose: 2.0 mg/kg/injection, schedule: Q03HX024 (ip), vehicle: saline
  T/C: 108 % of control
dose: 2.0 mg/kg/injection, schedule: Q04DX003 (ip), vehicle: saline
  T/C: 121 % of control and 124 % of control
dose: 2.0 mg/kg/injection, schedule: Q06HX008 (ip), vehicle: saline
  T/C: 156 % of control
dose: 2.0 mg/kg/injection, schedule: Q06HX012 (ip), vehicle: saline
  T/C: 151 % of control
dose: 2.0 mg/kg/injection, schedule: Q08DX002 (ip), vehicle: saline
  T/C: 113 % of control and 107 % of control
dose: 4.0 mg/kg/injection, schedule: Q01DX001 (ip), vehicle: saline
  T/C: 112 % of control
dose: 4.0 mg/kg/injection, schedule: Q01DX001 (iv), vehicle: saline
  T/C: 117 % of control
dose: 4.0 mg/kg/injection, schedule: Q01DX001 (oral), vehicle: saline
  T/C: 115 % of control
dose: 4.0 mg/kg/injection, schedule: Q01DX005 (ip), vehicle: saline
  T/C: 102 % of control
dose: 4.0 mg/kg/injection, schedule: Q06HX008 (ip), vehicle: saline
  T/C: 152 % of control
dose: 4.0 mg/kg/injection, schedule: Q06HX012 (ip), vehicle: saline
  T/C: 113 % of control
dose: 4.0 mg/kg/injection, schedule: Q08DX002 (ip), vehicle: saline
  T/C: 111 % of control
dose: 8.0 mg/kg/injection, schedule: Q01DX001 (ip), vehicle: saline
  T/C: 116 % of control
dose: 8.0 mg/kg/injection, schedule: Q01DX001 (oral), vehicle: saline
  T/C: 116 % of control
dose: 8.0 mg/kg/injection, schedule: Q08DX002 (ip), vehicle: saline
  T/C: 114 % of control
dose: 16.0 mg/kg/injection, schedule: Q04DX003 (ip), vehicle: saline
  T/C: 154 % of control

## O=[N+]([O-])c1ccc(O)c(C[P+](c2ccccc2)(c2ccccc2)c2ccccc2)c1
[1]
  T/C: 93 % of control
[2]
  T/C: 95 % of control
[3]
  T/C: 102 % of control

## COc1ccc(NC(=O)Nc2ccc(F)c(Cl)c2)c(OC)c1
[1]
  T/C: 97 % of control
[2]
  T/C: 103 % of control
[3]
  T/C: 112 % of control
